Values after ≈ are worked out from the molar mass of the structure shown. Like-named read-outs stand apart in the source and are kept apart here.
Tests used:
E. coli GC 2235 = assay: MIC, broth microdilution; settings: Escherichia coli
S. aureus GC 1079 = assay: MIC, broth microdilution; settings: Staphylococcus aureus
E. faecalis GC 2242 = assay: MIC, broth microdilution; settings: Enterococcus faecalis
Experimental: (§1) Antimicrobial susceptibility testing. The in vitro activities of the antibiotics are determined by the broth microdilution method as recommended by the National Committee for Clinical Laboratory Standards (NCCLS) (1). Mueller-Hinton II broth (MHBII)(BBL Cockeysville, Md.) is the medium employed in the testing procedures. Microtiter plates containing serial dilutions of each antimicrobial agent are inoculated with each organism to yield the appropriate density (10^5 CFU/ml) in a 100 μl final volume. The plates are incubated for 18-22 hours at 35° C. in ambient air.
(§2) Representative compounds were first incubated in mouse serum for an hour prior to the in vitro testing against a panel of selected gram-positive and gram-negative bacteria strains. All compounds were also pre-incubated in water for an hour prior to testing as control. Representative compounds of Formula I were incubated in human serum prior to MIC determination.

S. pneumoniae+ GC 4465 = assay: MIC, broth microdilution; settings: Streptococcus pneumoniae
Experimental: as §1
Representative compounds were first incubated in mouse serum for an hour prior to the in vitro testing against a panel of selected gram-positive and gram-negative bacteria strains. All compounds were also pre-incubated in water for an hour prior to testing as control.

S. aureus GC 1131 = assay: MIC, broth microdilution; settings: Staphylococcus aureus
E. coli GC 1073 = assay: MIC, broth microdilution; settings: Escherichia coli
E. coli GC 2234 = assay: MIC, broth microdilution; settings: Escherichia coli
S. aureus GC 6335 = assay: MIC, broth microdilution; settings: Staphylococcus aureus
Staph. aureus Smith = assay: In vivo activity (oral, iv; ED50) against Staph. aureus Smith in mice
Experimental: Representative examples of compounds of Formula I were tested for the oral efficacy using S. aureus Smith in mice.

S. aureus GC 2216 = assay: MIC, broth microdilution; settings: Staphylococcus aureus
E. coli GC 2271 = assay: MIC, broth microdilution; settings: Escherichia coli
S. pyogenes GC 4563 = assay: MIC, broth microdilution; settings: Streptococcus pyogenes
E. coli GC 2270 = assay: MIC, broth microdilution; settings: Escherichia coli
Experimental: as §1, §2

E. coli GC 4559 = assay: MIC, broth microdilution; settings: Escherichia coli
c. albicans GC 3066 = assay: MIC, broth microdilution
P. aeruginosa GC 2214 = assay: MIC, broth microdilution; settings: Pseudomonas aeruginosa
E. coli GC 2236 = assay: MIC, broth microdilution; settings: Escherichia coli
S. epidermidis GC 4935 = assay: MIC, broth microdilution; settings: Staphylococcus epidermidis
E. coli GC 2233 = assay: MIC, broth microdilution; settings: Escherichia coli
E. faecium GC 4556 = assay: MIC, broth microdilution; settings: Enterococcus faecium

CC(C)C(=O)OCOC(=O)N(CC(=O)Nc1cc(N(C)C)c2c(c1O)C(=O)C1=C(O)[C@]3(O)C(=O)C(C(N)=O)=C(O)[C@@H](N(C)C)[C@@H]3C[C@@H]1C2)C(C)(C)C [Example 45, ({[(2-{[(5aR,6aS,7S,10aS)-9-(aminocarbonyl)-4,7-bis(dimethylamino)-1,8,10a,11-tetrahydroxy-10,12-dioxo-5,5a,6,6a,7,10,10a,12-octahydrotetracen-2-yl]amino}-2-oxoethyl)(tert-butyl)amino]carbonyl}oxy)methyl 2-methylpropanoate] gave an MIC (E. coli GC 2235; GC2235, read-out: MINIMAL INHIBITORY CONCENTRATION MIC, pre-incubated in Human Serum) of 4 µg/mL (≈ 5.48 µM), an MIC (E. coli GC 2235; GC2235, read-out: MINIMAL INHIBITORY CONCENTRATION MIC, pre-incubated in Mouse Serum) of 0.5 µg/mL (≈ 0.685 µM) and an MIC (E. coli GC 2235; GC2235, read-out: MINIMAL INHIBITORY CONCENTRATION MIC, pre-incubated in Water) of 16 µg/mL (≈ 21.9 µM). It also gave an MIC (S. aureus GC 1079; GC1079, read-out: MINIMAL INHIBITORY CONCENTRATION MIC, pre-incubated in Human Serum) of 0.12 µg/mL (≈ 0.164 µM), an MIC (S. aureus GC 1079; GC1079, read-out: MINIMAL INHIBITORY CONCENTRATION MIC, pre-incubated in Mouse Serum) of 0.5 µg/mL (≈ 0.685 µM) and an MIC (S. aureus GC 1079; GC1079, read-out: MINIMAL INHIBITORY CONCENTRATION MIC, pre-incubated in Water) of 1 µg/mL (≈ 1.37 µM). For the same compound, the MIC (E. faecalis GC 2242; GC2242, read-out: MINIMAL INHIBITORY CONCENTRATION MIC, pre-incubated in Human Serum) was 1 µg/mL (≈ 1.37 µM), the MIC (E. faecalis GC 2242; GC2242, read-out: MINIMAL INHIBITORY CONCENTRATION MIC, pre-incubated in Mouse Serum) was 1 µg/mL (≈ 1.37 µM) and the MIC (E. faecalis GC 2242; GC2242, read-out: MINIMAL INHIBITORY CONCENTRATION MIC, pre-incubated in Water) was 2 µg/mL (≈ 2.74 µM). For the same compound, the MIC (S. pneumoniae+ GC 4465; read-out: MINIMAL INHIBITORY CONCENTRATION MIC, pre-incubated in Human Serum) was 2 µg/mL (≈ 2.74 µM), the MIC (S. pneumoniae+ GC 4465; read-out: MINIMAL INHIBITORY CONCENTRATION MIC, pre-incubated in Mouse Serum) was 2 µg/mL (≈ 2.74 µM) and the MIC (S. pneumoniae+ GC 4465; read-out: MINIMAL INHIBITORY CONCENTRATION MIC, pre-incubated in Water) was 4 µg/mL (≈ 5.48 µM). It also gave an MIC (S. aureus GC 1131; GC1131, read-out: MINIMAL INHIBITORY CONCENTRATION MIC, pre-incubated in Human Serum) of 0.5 µg/mL (≈ 0.685 µM), an MIC (S. aureus GC 1131; GC1131, read-out: MINIMAL INHIBITORY CONCENTRATION MIC, pre-incubated in Mouse Serum) of 0.5 µg/mL (≈ 0.685 µM) and an MIC (S. aureus GC 1131; GC1131, read-out: MINIMAL INHIBITORY CONCENTRATION MIC, pre-incubated in Water) of 1 µg/mL (≈ 1.37 µM). The MIC (E. coli GC 1073; GC1073, read-out: MINIMAL INHIBITORY CONCENTRATION MIC, pre-incubated in Human Serum) was 8 µg/mL (≈ 11 µM), the MIC (E. coli GC 1073; GC1073, read-out: MINIMAL INHIBITORY CONCENTRATION MIC, pre-incubated in Mouse Serum) was 1 µg/mL (≈ 1.37 µM) and the MIC (E. coli GC 1073; GC1073, read-out: MINIMAL INHIBITORY CONCENTRATION MIC, pre-incubated in Water) was 64 µg/mL (≈ 87.7 µM). It also gave an MIC (E. coli GC 2234; GC2234, read-out: MINIMAL INHIBITORY CONCENTRATION MIC, pre-incubated in Human Serum) of 4 µg/mL (≈ 5.48 µM), an MIC (E. coli GC 2234; GC2234, read-out: MINIMAL INHIBITORY CONCENTRATION MIC, pre-incubated in Mouse Serum) of 0.5 µg/mL (≈ 0.685 µM) and an MIC (E. coli GC 2234; GC2234, read-out: MINIMAL INHIBITORY CONCENTRATION MIC, pre-incubated in Water) of 16 µg/mL (≈ 21.9 µM). The MIC (S. aureus GC 6335; GC6335, read-out: MINIMAL INHIBITORY CONCENTRATION MIC, pre-incubated in Human Serum) was 0.5 µg/mL (≈ 0.685 µM), the MIC (S. aureus GC 6335; GC6335, read-out: MINIMAL INHIBITORY CONCENTRATION MIC, pre-incubated in Mouse Serum) was 1 µg/mL (≈ 1.37 µM) and the MIC (S. aureus GC 6335; GC6335, read-out: MINIMAL INHIBITORY CONCENTRATION MIC, pre-incubated in Water) was 2 µg/mL (≈ 2.74 µM). It also gave an ED50 (Staph. aureus Smith; Staphylococcus aureus, in Mus musculus, iv, read-out: ED50 SIV (Staph aureus Smith)) of 0.66 mg/kg, an ED50 (Staph. aureus Smith; Staphylococcus aureus, in Mus musculus, po, read-out: ED50 SOD (Staph aureus Smith)) of 5.9 mg/kg and an ED50 (Staph. aureus Smith; Staphylococcus aureus, in Mus musculus, po, read-out: ED50 Staph Smith SOD) of 5.9 mg/kg. The ED50 (Staph. aureus Smith; iv, read-out: ED50 Staph Smith SIV) was 0.66 mg/kg, the MIC (S. aureus GC 2216; GC2216, read-out: MINIMAL INHIBITORY CONCENTRATION MIC, pre-incubated in Human Serum) was 0.5 µg/mL (≈ 0.685 µM) and the MIC (S. aureus GC 2216; GC2216, read-out: MINIMAL INHIBITORY CONCENTRATION MIC, pre-incubated in Mouse Serum) was 1 µg/mL (≈ 1.37 µM). The MIC (S. aureus GC 2216; GC2216, read-out: MINIMAL INHIBITORY CONCENTRATION MIC, pre-incubated in Water) was 1 µg/mL (≈ 1.37 µM), the MIC (E. coli GC 2271; GC2271, read-out: MINIMAL INHIBITORY CONCENTRATION MIC, pre-incubated in Human Serum) was 4 µg/mL (≈ 5.48 µM) and the MIC (E. coli GC 2271; GC2271, read-out: MINIMAL INHIBITORY CONCENTRATION MIC, pre-incubated in Mouse Serum) was 0.5 µg/mL (≈ 0.685 µM). For the same compound, the MIC (E. coli GC 2271; GC2271, read-out: MINIMAL INHIBITORY CONCENTRATION MIC, pre-incubated in Water) was 16 µg/mL (≈ 21.9 µM), the MIC (S. pyogenes GC 4563; GC4563, read-out: MINIMAL INHIBITORY CONCENTRATION MIC, pre-incubated in Human Serum) was 0.25 µg/mL (≈ 0.343 µM) and the MIC (S. pyogenes GC 4563; GC4563, read-out: MINIMAL INHIBITORY CONCENTRATION MIC, pre-incubated in Mouse Serum) was 0.25 µg/mL (≈ 0.343 µM). For the same compound, the MIC (S. pyogenes GC 4563; GC4563, read-out: MINIMAL INHIBITORY CONCENTRATION MIC, pre-incubated in Water) was 0.5 µg/mL (≈ 0.685 µM), the MIC (E. coli GC 2270; GC2270, read-out: MINIMAL INHIBITORY CONCENTRATION MIC, pre-incubated in Human Serum) was 4 µg/mL (≈ 5.48 µM) and the MIC (E. coli GC 2270; GC2270, read-out: MINIMAL INHIBITORY CONCENTRATION MIC, pre-incubated in Mouse Serum) was 0.5 µg/mL (≈ 0.685 µM). It also gave an MIC (E. coli GC 2270; GC2270, read-out: MINIMAL INHIBITORY CONCENTRATION MIC, pre-incubated in Water) of 32 µg/mL (≈ 43.8 µM), an MIC (E. coli GC 4559; GC4559, read-out: MINIMAL INHIBITORY CONCENTRATION MIC, pre-incubated in Human Serum) of 8 µg/mL (≈ 11 µM) and an MIC (E. coli GC 4559; GC4559, read-out: MINIMAL INHIBITORY CONCENTRATION MIC, pre-incubated in Mouse Serum) of 1 µg/mL (≈ 1.37 µM). The MIC (E. coli GC 4559; GC4559, read-out: MINIMAL INHIBITORY CONCENTRATION MIC, pre-incubated in Water) was 64 µg/mL (≈ 87.7 µM), the MIC (c. albicans GC 3066; Candida albicans, GC3066, read-out: MINIMAL INHIBITORY CONCENTRATION MIC) was > 64 µg/mL and the “MINIMAL INHIBITORY CONCENTRATION MIC” value (c. albicans GC 3066; pre-incubated in Human Serum) was >64 UG/ML. For the same compound, the “MINIMAL INHIBITORY CONCENTRATION MIC” value (c. albicans GC 3066; pre-incubated in Mouse Serum) was >64 UG/ML, the MIC (P. aeruginosa GC 2214; GC2214, read-out: MINIMAL INHIBITORY CONCENTRATION MIC, pre-incubated in Human Serum) was > 64 µg/mL and the MIC (P. aeruginosa GC 2214; GC2214, read-out: MINIMAL INHIBITORY CONCENTRATION MIC, pre-incubated in Mouse Serum) was 16 µg/mL (≈ 21.9 µM). For the same compound, the MIC (P. aeruginosa GC 2214; GC2214, read-out: MINIMAL INHIBITORY CONCENTRATION MIC, pre-incubated in Water) was > 64 µg/mL, the MIC (E. coli GC 2236; GC2236, read-out: MINIMAL INHIBITORY CONCENTRATION MIC, pre-incubated in Human Serum) was 4 µg/mL (≈ 5.48 µM) and the MIC (E. coli GC 2236; GC2236, read-out: MINIMAL INHIBITORY CONCENTRATION MIC, pre-incubated in Mouse Serum) was 1 µg/mL (≈ 1.37 µM). The MIC (E. coli GC 2236; GC2236, read-out: MINIMAL INHIBITORY CONCENTRATION MIC, pre-incubated in Water) was 16 µg/mL (≈ 21.9 µM), the MIC (S. epidermidis GC 4935; GC4935, read-out: MINIMAL INHIBITORY CONCENTRATION MIC, pre-incubated in Human Serum) was 1 µg/mL (≈ 1.37 µM) and the MIC (S. epidermidis GC 4935; GC4935, read-out: MINIMAL INHIBITORY CONCENTRATION MIC, pre-incubated in Mouse Serum) was 1 µg/mL (≈ 1.37 µM). The MIC (S. epidermidis GC 4935; GC4935, read-out: MINIMAL INHIBITORY CONCENTRATION MIC, pre-incubated in Water) was 2 µg/mL (≈ 2.74 µM), the MIC (E. coli GC 2233; GC2233, read-out: MINIMAL INHIBITORY CONCENTRATION MIC, pre-incubated in Human Serum) was 4 µg/mL (≈ 5.48 µM) and the MIC (E. coli GC 2233; GC2233, read-out: MINIMAL INHIBITORY CONCENTRATION MIC, pre-incubated in Mouse Serum) was 1 µg/mL (≈ 1.37 µM). The MIC (E. coli GC 2233; GC2233, read-out: MINIMAL INHIBITORY CONCENTRATION MIC, pre-incubated in Water) was 16 µg/mL (≈ 21.9 µM), the MIC (E. faecium GC 4556; GC4556, read-out: MINIMAL INHIBITORY CONCENTRATION MIC, pre-incubated in Human Serum) was 1 µg/mL (≈ 1.37 µM) and the MIC (E. faecium GC 4556; GC4556, read-out: MINIMAL INHIBITORY CONCENTRATION MIC, pre-incubated in Mouse Serum) was 1 µg/mL (≈ 1.37 µM). It also gave an MIC (E. faecium GC 4556; GC4556, read-out: MINIMAL INHIBITORY CONCENTRATION MIC, pre-incubated in Water) of 2 µg/mL (≈ 2.74 µM).

Reference: US20070049564A1 (Wyeth, priority 2005, published 2007)
